≈ marks a conversion by molar mass, not a printed value.
Assays:
[1] = Inhibition of Plasmodium falciparum DHODH expressed in Escherichia coli BL21-DE3 using L-dihydroorotate as substrate by steady-state DCIP method
[2] = Inhibition of Plasmodium vivax DHODH expressed in Escherichia coli BL21-DE3 using L-dihydroorotate as substrate by steady-state DCIP method
[3] = target: Dihydroorotate dehydrogenase (quinone), mitochondrial (Rattus norvegicus, UniProt Q63707); test: Inhibition of rat DHODH up to 100 uM; settings: up to 100 µM
Sequence of Dihydroorotate dehydrogenase (quinone), mitochondrial (Rattus norvegicus, UniProt Q63707) (Q63707 whole entry): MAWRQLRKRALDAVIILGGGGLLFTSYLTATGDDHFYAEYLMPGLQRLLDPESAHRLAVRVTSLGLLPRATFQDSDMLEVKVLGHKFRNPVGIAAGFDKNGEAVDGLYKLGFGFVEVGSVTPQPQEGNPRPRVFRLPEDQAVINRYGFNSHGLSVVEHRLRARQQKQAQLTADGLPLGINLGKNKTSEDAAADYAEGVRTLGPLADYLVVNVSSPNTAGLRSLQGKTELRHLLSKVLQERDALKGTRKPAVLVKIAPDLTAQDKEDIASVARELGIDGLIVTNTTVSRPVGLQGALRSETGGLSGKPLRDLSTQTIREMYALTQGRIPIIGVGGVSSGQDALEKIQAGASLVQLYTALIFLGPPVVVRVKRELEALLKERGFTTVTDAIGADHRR

[4] = target: Dihydroorotate dehydrogenase (quinone), mitochondrial (Mus musculus, UniProt O35435); test: Inhibition of mouse DHODH up to 100 uM; settings: up to 100 µM
Sequence of Dihydroorotate dehydrogenase (quinone), mitochondrial (Mus musculus, UniProt O35435) (O35435 whole entry): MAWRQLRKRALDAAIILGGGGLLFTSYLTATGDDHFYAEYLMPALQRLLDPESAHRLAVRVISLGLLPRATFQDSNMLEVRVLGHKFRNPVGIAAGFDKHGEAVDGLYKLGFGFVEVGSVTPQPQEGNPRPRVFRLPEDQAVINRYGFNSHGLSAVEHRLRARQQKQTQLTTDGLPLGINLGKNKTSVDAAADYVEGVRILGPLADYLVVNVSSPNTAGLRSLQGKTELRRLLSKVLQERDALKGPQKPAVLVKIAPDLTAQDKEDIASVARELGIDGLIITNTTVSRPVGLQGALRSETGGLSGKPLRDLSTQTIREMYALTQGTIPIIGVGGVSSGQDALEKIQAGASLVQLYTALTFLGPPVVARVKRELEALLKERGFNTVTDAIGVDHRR

[5] = Inhibition of dog DHODH up to 100 uM; parameters: species or system Canis lupus familiaris; settings: up to 100 µM
L1210 = test: Cytotoxicity against mouse L1210 cells; type: cell-based
HepG2 = test: Cytotoxicity against human HepG2 cells; type: cell-based
Albumin = Albumin (Bos taurus, UniProt P02769); test: Binding affinity to bovine serum albumin by Albumax assay; type: ADME; settings: cattle, isolated protein
Sequence of Albumin (P02769 whole entry): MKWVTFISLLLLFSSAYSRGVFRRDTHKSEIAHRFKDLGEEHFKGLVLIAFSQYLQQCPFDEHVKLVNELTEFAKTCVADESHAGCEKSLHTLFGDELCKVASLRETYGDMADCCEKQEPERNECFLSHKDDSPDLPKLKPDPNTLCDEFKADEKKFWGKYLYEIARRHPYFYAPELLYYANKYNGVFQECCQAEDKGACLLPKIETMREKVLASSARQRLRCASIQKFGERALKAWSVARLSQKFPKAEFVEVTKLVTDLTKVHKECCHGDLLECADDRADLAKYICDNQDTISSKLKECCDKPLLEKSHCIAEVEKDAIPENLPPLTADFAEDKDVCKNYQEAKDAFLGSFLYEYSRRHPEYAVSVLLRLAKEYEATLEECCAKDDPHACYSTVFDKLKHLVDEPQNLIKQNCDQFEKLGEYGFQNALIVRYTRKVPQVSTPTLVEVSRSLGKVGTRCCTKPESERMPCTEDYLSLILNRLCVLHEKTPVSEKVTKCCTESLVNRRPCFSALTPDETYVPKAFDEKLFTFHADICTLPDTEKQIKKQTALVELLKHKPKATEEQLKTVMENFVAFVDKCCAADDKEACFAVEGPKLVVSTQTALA

[6] = Binding affinity to microsome (unknown origin); type: ADME; settings: microsomes
[7] = Intrinsic clearance in mouse liver microsomes at 1 uM measured up to 4 hrs by LC-MS analysis; type: ADME, Microsome
[8] = Unbound intrinsic clearance in mouse liver microsomes at 1 uM measured up to 4 hrs by LC-MS analysis; type: ADME, Microsome
[9] = Half life in Swiss mouse at 20 mg/kg, po measured up to 24 hrs by LC-MS analysis; type: ADME, organism-based; settings: in vivo
[10] = Tmax in Swiss mouse at 20 mg/kg, po measured up to 24 hrs by LC-MS analysis; type: ADME, organism-based; settings: in vivo
[11] = Cmax in Swiss mouse at 20 mg/kg, po measured up to 24 hrs by LC-MS analysis; type: ADME, organism-based; parameters: route oral, dose 20 mg/kg, time <=24; settings: in vivo
[12] = AUC (0 to infinity) in Swiss mouse at 20 mg/kg, po measured up to 24 hrs by LC-MS analysis; type: ADME, organism-based; parameters: route oral, dose 20 mg/kg, time <=24; settings: in vivo
[13] = Plasma clearance in Sprague-Dawley rat at […], iv measured up to 24 hrs; type: ADME, organism-based
[14] = Volume of distribution at steady state in Sprague-Dawley rat at […], iv measured up to 24 hrs; type: ADME, organism-based; settings: in vivo, read-out: Vdss
[15] = Apparent half life in Sprague-Dawley rat at 31 mg/kg, po measured up to 24 hrs; type: ADME, organism-based; settings: in vivo, read-out: t1/2(app) (converted)
[16] = Tmax in Sprague-Dawley rat at 31 mg/kg, po measured up to 24 hrs; type: ADME, organism-based; settings: in vivo
[17] = Cmax in Sprague-Dawley rat at 31 mg/kg, po measured up to 24 hrs; type: ADME, organism-based; parameters: route oral, dose 31 mg/kg, time <=24; settings: in vivo
[18] = AUC (0 to infinity) in Sprague-Dawley rat at 31 mg/kg, po measured up to 24 hrs; type: ADME, organism-based; parameters: route oral, dose 31 mg/kg, time <=24; settings: in vivo
[19] = Oral bioavailability in Sprague-Dawley rat at 31 mg/kg measured up to 24 hrs; type: ADME, organism-based; settings: in vivo
Plasmodium falciparum [20] = test: Antiplasmodial activity against asexual blood stage chloroquine and pyrimethamine-resistant Plasmodium falciparum Dd2 infected in human erythrocytes assessed as parasite killing; type: functional, organism-based
Plasmodium falciparum [21] = tested on: Plasmodium falciparum
Cytochrome P450 2B6 = target: T1, Cytochrome P450 2B6 (Homo sapiens, UniProt P20813)
T1 sequence (P20813 whole entry): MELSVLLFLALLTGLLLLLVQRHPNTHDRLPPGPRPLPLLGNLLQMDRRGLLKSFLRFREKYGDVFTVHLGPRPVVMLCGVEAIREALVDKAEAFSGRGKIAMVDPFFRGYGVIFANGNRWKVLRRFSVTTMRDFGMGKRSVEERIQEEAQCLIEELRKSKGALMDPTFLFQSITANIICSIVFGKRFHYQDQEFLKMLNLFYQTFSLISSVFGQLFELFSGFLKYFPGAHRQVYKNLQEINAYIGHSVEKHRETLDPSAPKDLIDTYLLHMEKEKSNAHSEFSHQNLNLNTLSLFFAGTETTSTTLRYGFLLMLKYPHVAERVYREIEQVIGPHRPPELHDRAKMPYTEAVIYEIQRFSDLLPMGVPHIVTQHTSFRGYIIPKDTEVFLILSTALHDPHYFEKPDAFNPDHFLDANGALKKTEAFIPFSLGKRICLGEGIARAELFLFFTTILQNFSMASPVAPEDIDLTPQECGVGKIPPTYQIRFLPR

Cytochrome P450 2C8 = target: T2, Cytochrome P450 2C8 (Homo sapiens, UniProt P10632)
T2 sequence (P10632 whole entry): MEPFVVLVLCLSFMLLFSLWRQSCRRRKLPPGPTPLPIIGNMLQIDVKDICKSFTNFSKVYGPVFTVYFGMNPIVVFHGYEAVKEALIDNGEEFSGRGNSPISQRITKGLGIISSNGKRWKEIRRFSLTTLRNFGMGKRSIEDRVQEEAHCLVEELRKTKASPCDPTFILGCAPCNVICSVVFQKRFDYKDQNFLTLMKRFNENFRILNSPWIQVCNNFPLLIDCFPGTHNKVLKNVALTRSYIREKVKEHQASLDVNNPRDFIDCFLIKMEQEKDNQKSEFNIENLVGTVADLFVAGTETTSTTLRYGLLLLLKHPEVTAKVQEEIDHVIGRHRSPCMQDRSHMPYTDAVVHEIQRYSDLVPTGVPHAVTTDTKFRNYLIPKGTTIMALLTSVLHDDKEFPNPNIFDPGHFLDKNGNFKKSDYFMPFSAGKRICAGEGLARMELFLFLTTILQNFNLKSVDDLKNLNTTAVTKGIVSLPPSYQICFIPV

Cytochrome P450 3A4 = Cytochrome P450 3A4 (Homo sapiens, UniProt P08684)
Sequence of Cytochrome P450 3A4 (P08684 whole entry): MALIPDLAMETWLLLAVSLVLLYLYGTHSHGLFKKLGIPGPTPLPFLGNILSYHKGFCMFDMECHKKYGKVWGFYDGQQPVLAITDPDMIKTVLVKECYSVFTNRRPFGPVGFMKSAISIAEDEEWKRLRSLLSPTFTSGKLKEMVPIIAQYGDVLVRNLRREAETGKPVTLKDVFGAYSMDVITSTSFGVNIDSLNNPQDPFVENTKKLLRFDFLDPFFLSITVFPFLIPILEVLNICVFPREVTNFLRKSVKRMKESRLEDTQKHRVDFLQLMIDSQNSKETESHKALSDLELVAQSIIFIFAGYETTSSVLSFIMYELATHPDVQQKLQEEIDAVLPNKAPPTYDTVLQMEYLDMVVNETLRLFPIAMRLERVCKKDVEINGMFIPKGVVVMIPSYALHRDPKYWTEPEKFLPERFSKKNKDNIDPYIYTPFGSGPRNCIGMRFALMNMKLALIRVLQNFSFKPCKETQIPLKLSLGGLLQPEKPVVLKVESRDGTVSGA

[22] = buffer, pH 1.6, 1 h
[23] = simulated gi fluid, pH 6.5, 5 h
[24] = simulated gi fluid, pH 5.8, 5 h
[25] = buffer, pH 7.4, 5 h
[26] = human, plasma
[27] = rat, plasma
[28] = mouse, plasma
in vitro [29] = settings: rat, blood and plasma
in vitro [30] = settings: mouse, blood and plasma
[31] = Apparent half life in Sprague-Dawley rat at 32 mg/kg, po measured up to 24 hrs; type: ADME, organism-based; settings: in vivo, read-out: t1/2(app) (converted)
[32] = Tmax in Sprague-Dawley rat at 32 mg/kg, po measured up to 24 hrs; type: ADME, organism-based; settings: in vivo
[33] = Cmax in Sprague-Dawley rat at 32 mg/kg, po measured up to 24 hrs; type: ADME, organism-based; parameters: route oral, dose 32 mg/kg, time <=24; settings: in vivo
[34] = AUC (0 to infinity) in Sprague-Dawley rat at 32 mg/kg, po measured up to 24 hrs; type: ADME, organism-based; parameters: route oral, dose 32 mg/kg, time <=24; settings: in vivo
[35] = Oral bioavailability in Sprague-Dawley rat at 32 mg/kg measured up to 24 hrs; type: ADME, organism-based; settings: in vivo
Plasmodium falciparum [36] = test: Antiplasmodial activity against asexual blood stage Plasmodium falciparum D10 expressing yeast DHODH infected in human erythrocytes assessed as parasite killing; type: functional, organism-based
Plasmodium falciparum [37] = test: Antiplasmodial activity against asexual blood stage Plasmodium falciparum D10 expressing yeast DHODH infected in human erythrocytes assessed as parasite killing in presence of proguanil; type: functional, organism-based
Plasmodium falciparum [38] = test: Antiplasmodial activity against Plasmodium falciparum 3D7 Uganda infected in human erythrocytes assessed as parasite killing using albumax media measured after 72 hrs by SYBR Green assay; type: functional, organism-based; settings: 3D7, 72 h
Plasmodium falciparum [39] = test: Antiplasmodial activity against Plasmodium falciparum Dd2 Uganda infected in human erythrocytes assessed as parasite killing using albumax media measured after 72 hrs by SYBR Green assay; type: functional, organism-based; settings: Dd2, 72 h
Plasmodium falciparum [40] = test: Antiplasmodial activity against Plasmodium falciparum Uganda field isolated from patients infected in human erythrocytes assessed as parasite killing using albumax media measured after 72 hrs by SYBR Green assay; type: functional, organism-based
[41] = Plasma clearance in Swiss mouse at […], iv measured up to 24 hrs by LC-MS analysis; type: ADME, organism-based; settings: dose 2.8 mg/kg
[42] = Volume of distribution at steady state in Swiss mouse at […], iv measured up to 24 hrs by LC-MS analysis; type: ADME, organism-based; settings: in vivo, dose 2.8 mg/kg, read-out: Vdss
[43] = Oral bioavailability in Swiss mouse at 20 mg/kg measured up to 24 hrs by LC-MS analysis; type: ADME, organism-based; settings: in vivo
[44] = Apparent half life in Sprague-Dawley rat at 28 mg/kg, po measured up to 24 hrs; type: ADME, organism-based; settings: in vivo, read-out: t1/2(app) (converted)
[45] = Tmax in Sprague-Dawley rat at 28 mg/kg, po measured up to 24 hrs; type: ADME, organism-based; settings: in vivo
[46] = Cmax in Sprague-Dawley rat at 28 mg/kg, po measured up to 24 hrs; type: ADME, organism-based; parameters: route oral, dose 28 mg/kg, time <=24; settings: in vivo
[47] = AUC (0 to infinity) in Sprague-Dawley rat at 28 mg/kg, po measured up to 24 hrs; type: ADME, organism-based; parameters: route oral, dose 28 mg/kg, time <=24; settings: in vivo
[48] = Oral bioavailability in Sprague-Dawley rat at 28 mg/kg measured up to 24 hrs; type: ADME, organism-based; settings: in vivo
Plasmodium berghei = test: Antiplasmodial activity against liver stage Plasmodium berghei berghei-ANKA-GFP-Luc-SMCON (Pb-Luc) assessed as parasite killing infected in HepG2-A16-CD8IEGF cells; type: functional, organism-based
[49] = human, caco-2, pH 7.4
[50] = human, caco-2, pH 7.4; remark: listed apart in the source

| Structure (SMILES) | IC50 [1] | IC50 [2] | inhibition (INH) [3] | inhibition (INH) [4] | inhibition (INH) [5] | Activity (L1210) | Activity (HepG2) | Activity (Albumin) | Activity [6] | Intrinsic clearance [7] | CL free [8] | half-life [9] | Tmax [10] | Cmax [11] | AUC(0-inf) [12] | EC50 (Plasmodium falciparum [20]) | EC50 (Plasmodium falciparum [21]) | PPB [26] | PPB [27] | PPB [28] | further results |
| --- | --- | --- | --- | --- | --- | --- | --- | --- | --- | --- | --- | --- | --- | --- | --- | --- | --- | --- | --- | --- | --- |
| Cc1c(Cc2ccc(C(F)(F)F)nc2)c[nH]c1C(=O)NC(C)c1cn[nH]c1 (stereo in doubt; form 1) | 47 nM | 43 nM | Not Active | Not Active | Not Active | Non-Toxic | Non-Toxic | 49.5% | 40.5% | 31 µL/min/mg | 52 µL/min/mg | 4.4 h | 1 h | 6.4 µM | 65 µM·h | 2.4 nM | 4.5 nM | 84% | 91.4% | 92.1% | clearance at 24 h ([13]; dose 2.9 mg/kg): 6.2 mL/min/kg; Vd at 24 h ([14]; dose 2.9 mg/kg): 1.7 L/kg; half-life [15]: 3.4 h; Tmax [16]: 3 h; Cmax [17]: 2.4 µM; AUC(0-inf) [18]: 22 µM·h; bioavailability [19]: 10%; IC50 (Cytochrome P450 2B6): > 20000 nM; IC50 (Cytochrome P450 2C8): 18300 nM; TDI (Cytochrome P450 3A4): Active; solubility [22]: 81 µg/mL (≈ 215 µM); solubility [23]: 34 µg/mL (≈ 90.1 µM); solubility [24]: 81 µg/mL (≈ 215 µM); solubility [25]: 23 µg/mL (≈ 60.9 µM); blood plasma ratio (in vitro [29]): 1.3; blood plasma ratio (in vitro [30]): 1.4 |
| Cc1c(Cc2ccc(C(F)(F)F)nc2)c[nH]c1C(=O)NC(C)c1cnn(C)c1 (stereo in doubt; form 1) | 46 nM | 3.9 nM | Not Active | Not Active | Not Active | Non-Toxic | Non-Toxic | 49.5% | 44.8% | 41 µL/min/mg | 75 µL/min/mg | 3.5 h | 1 h | 36 µM | 217 µM·h | – | – | 83% | 95.1% | 93.6% | clearance at 24 h ([13]; dose 2.8 mg/kg): 2.4 mL/min/kg; Vd at 24 h ([14]; dose 2.8 mg/kg): 0.87 L/kg; half-life [31]: 3.7 h; Tmax [32]: 3.5 h; Cmax [33]: 35 µM; AUC(0-inf) [34]: 360 µM·h; bioavailability [35]: 61%; EC50 (Plasmodium falciparum [36]): > 10000 nM; EC50 (Plasmodium falciparum [37]): > 10000 nM; EC50 (Plasmodium falciparum [38]): 6.2 nM; EC50 (Plasmodium falciparum [39]): 5.9 nM; EC50 (Plasmodium falciparum [40]): 9.8 nM; IC50 (Cytochrome P450 2C8): > 20000 nM; TDI (Cytochrome P450 3A4): Not Active; solubility [22]: 113 µg/mL (≈ 289 µM); solubility [23]: 60 µg/mL (≈ 153 µM); solubility [24]: 158 µg/mL (≈ 404 µM) |
| Cc1cc(C(C)NC(=O)c2[nH]cc(Cc3ccc(C(F)(F)F)nc3)c2C)no1 (stereo in doubt; form 1) | – | 7.2 nM | Not Active | Not Active | Not Active | Non-Toxic | Non-Toxic | 75% | 43.3% | 63 µL/min/mg | 111 µL/min/mg | 2.3 h | 1 h | 13 µM | 66 µM·h | 8.7 nM | 9.3 nM | 94.7% | 93.7% | 92.2% | clearance at 24 h [41]: 7.7 mL/min/kg; Vd at 24 h [42]: 1.4 L/kg; bioavailability [43]: 61%; half-life [44]: 4.1 h; Tmax [45]: 4.3 h; Cmax [46]: 16 µM; AUC(0-inf) [47]: 160 µM·h; bioavailability [48]: 43%; EC50 (Plasmodium berghei): 8.3 nM; Papp [49]: 48 10^-6 cm/s; Papp [50]: 57 10^-6 cm/s |
